Source: PubChem BioAssay AID1996
Values after ≈ are worked out from the molar mass of the structure shown.

conditions: buffer; pH 7.4; 200.0 µM

Row | Compound | solubility kinetic [µg/mL]
1 | COC(=O)c1ccc(C(=O)Nc2nc3cc(N)c(C)cc3s2)cc1 | < 0.2
2 | O=C(NC1CCN(Cc2ccccc2)CC1)c1ccc(Cl)cc1Cl | > 54.5
3 | O=C1CC(Cc2ccc(Cl)cc2)C(=O)N1c1cc(Cl)ccn1 (stereo not given) | 29.4 (≈ 87.7 µM)
4 | Cl.c1csc(CN2CCNCC2)c1 | > 38.3
5 | CC1CCN(C(=O)c2cc(-c3ccc4c(c3)OCO4)on2)CC1 | 28.2 (≈ 89.7 µM)
6 | CCC(CC)C(=O)Nc1cccc(C(=O)NCCc2ccccc2)c1 | 40.8 (≈ 121 µM)
7 | Nc1nc(NCC(=O)O)nc(NCc2ccccc2)c1[N+](=O)[O-] | > 47.7
8 | Cc1ccc2c(c1)c1c3n2CCNC3CCC1.Cl (stereo not given) | > 39.4
9 | N#Cc1ccc(OC(=O)Cc2ccsc2)cc1 | 35.5 (≈ 146 µM)
10 | CCCNCC(=O)Nc1cccc(S(=O)(=O)NC2=NCCCCC2)c1.O=C(O)C(=O)O | > 68.5
11 | OC(CNCCNc1ncccc1C(F)(F)F)COc1ccc(F)cc1 (stereo not given) | 50.9 (≈ 136 µM)
12 | COc1cc(SC)ccc1C(=O)N1CCc2ccccc21 | 4.5 (≈ 15 µM)
13 | O=C(O)c1ccc(N=Cc2c(O)ccc3oc4c(c23)CCCC4)cc1 | > 50.3
14 | Cc1cccc(CN(C(=S)Nc2c(C)cccc2C)c2cccnc2)c1 | 16.9 (≈ 46.7 µM)
15 | Cc1ccc(Nc2cc(C)c3ccc(O)cc3n2)cc1C.Cl | 11.1
16 | Fc1ccc(-c2noc(-c3ccc4c(c3)CCO4)n2)cc1 | < 0.3
17 | O=C(Nc1ccc(Cl)cc1)c1ccc2ncsc2c1 | 3.1 (≈ 10.7 µM)
18 | COc1ccccc1NC(=O)Nc1ccc(N2CCOCC2)cc1 | 45.8 (≈ 140 µM)
19 | COC(=O)CNC(=S)NC(=O)c1ccc(C(C)(C)C)cc1 | 25.4 (≈ 82.4 µM)
20 | CC(=O)Nc1ccc(C(=O)NCC(c2ccco2)N(C)C)cc1 (stereo not given) | 44.7 (≈ 142 µM)

Row | Compound | solubility kinetic [µg/mL]
21 | O=C(CNC1CCCCC1)Nc1cccc([N+](=O)[O-])c1 | 31.4 (≈ 113 µM)
22 | O=S(=O)(c1cccs1)N1CCN(c2ccc(F)cc2)CC1 | 9.6 (≈ 29.4 µM)
23 | Cc1ccc(S(=O)(=O)NCc2ccccc2)cc1C(=O)NCc1ccccn1 | 48.1 (≈ 122 µM)
24 | COCCCNc1nc2nonc2nc1NCCSC | 37.1 (≈ 124 µM)
25 | Cc1ccc(C(=O)Nc2ccc(NC(=O)c3cccs3)cc2)c(C)c1 | < 0.4
26 | COc1ccc(NC(=O)/C=C/c2cc(OC)c(OC)c(OC)c2)cn1 | 0.5 (≈ 1.45 µM)
27 | CC(=O)c1ccc(NC(=O)[C@@]2(CC(=O)O)CC(/C=C/c3ccccc3)=NO2)cc1 | > 58.9
28 | Cc1ccn2c(NC3CCCC3)c(-c3ccncc3)nc2c1 | 35.3 (≈ 121 µM)
29 | Cc1ccccc1C(=O)NC1CCSC1=O (stereo not given) | > 35.3
30 | CCc1ccccc1Cn1c(=O)oc2cccnc21 | > 38.1
31 | O=C(Cc1nc2ccccc2[nH]1)c1ccc(Br)cc1 | 24.6 (≈ 78.1 µM)
32 | O=C(COc1ccccc1)Nc1ccc(NC(=O)c2ccco2)cc1 | 2.6 (≈ 7.73 µM)
33 | N#CCc1cc2ccc3cccc4ccc(c1)c2c34 | < 0.5
34 | O=c1[nH]c(O)c(C=Nc2cc(F)cc(F)c2)c(=O)[nH]1 | 2.8 (≈ 10.5 µM)
35 | CN(C)CCCN(Cc1ccc2c(c1)OCO2)C(=O)NC1CCCCC1 | > 54.2
36 | COc1ccc(C(=O)Nc2ccc(N3CCCC3)cc2)cc1Br | < 0.4
37 | CN(C)S(=O)(=O)Nc1cccc(-c2cn3c(n2)SCC3)c1 | > 48.7
38 | CCOC(=O)N1CCN(C(=O)c2ccc(S(=O)(=O)Nc3ccc(C)cc3)cc2)CC1 | > 64.7
39 | Cc1cc(C=O)c(C)n1C(C)C | 23 (≈ 139 µM)
40 | CCC1Oc2ccc(C)cc2N(CC(=O)NCc2cccs2)C1=O (stereo not given) | 5.2 (≈ 15.1 µM)

Row | Compound | solubility kinetic [µg/mL]
41 | Cc1ccc(C)c(-c2csc(-c3cccnc3)n2)c1 | 9.9 (≈ 37.2 µM)
42 | C=CCn1cc(C=C2C(=O)N(C)C(=O)N(C)C2=O)c2ccccc21 | 0.8 (≈ 2.47 µM)
43 | CN(C(=O)COC(=O)c1cc[n+]([O-])cc1)c1ccccc1 | > 42.9
44 | COc1ccc(C2(C#N)CCC(=O)N2c2ccccc2)cc1 (stereo not given) | 40.9 (≈ 140 µM)
45 | Cc1ccc(NC(=S)N(N)CCO)cc1 | > 33.8
46 | COc1ccc(CCNC(=O)Nc2cccc([N+](=O)[O-])c2)cc1 | 2.3 (≈ 7.29 µM)
47 | CCCCN(CC)S(=O)(=O)c1ccc2c(c1)n(C)c(=O)c(=O)n2C | 2.8 (≈ 7.92 µM)
48 | Cc1cc(C)c2nc(NC(=O)c3ccco3)sc2c1 | 0.4 (≈ 1.47 µM)
49 | Cc1csc(Nc2ccc(C(=O)O)cc2)n1 | > 35.1
50 | CC1CCCC(NC(=O)CN2C(=O)NC(Cc3c[nH]c4ccccc34)C2=O)C1C (stereo not given) | > 59.5
51 | O=C(CN1C(=O)c2ccccc2C1=O)c1ccc(F)cc1 | 39.5 (≈ 139 µM)
52 | O=C(Nc1ccc(F)cc1)Nc1ccc2c(c1)OCO2 | 0.7 (≈ 2.55 µM)
53 | O=C(NC(=S)NC12CC3CC(CC(C3)C1)C2)c1ccc(F)cc1 | 2.3 (≈ 6.92 µM)
54 | O=C1c2ccccc2CN1Cc1ccccc1 | > 33.5
55 | COC(=O)c1sc(NC(=O)c2ccncc2)nc1C | 27.3 (≈ 98.4 µM)
56 | CC1CCN(CC(=O)N2c3ccccc3CC2C)CC1.Cl (stereo not given) | > 46.3
57 | Nc1cccc(/C=C/C(=O)O)c1 | > 24.5
58 | Cc1ccc(C(=O)Nc2cccc3[nH]c(C(F)(F)F)nc23)cc1 | 3.3 (≈ 10.3 µM)
59 | Cn1cnc(Sc2ncnc3nc[nH]c23)c1[N+](=O)[O-] | 29.7 (≈ 107 µM)
60 | CN(C)c1ccc(C(=O)NCC(c2cccs2)N2CCOCC2)cc1 (stereo not given) | 49.3 (≈ 137 µM)
